Laboratory results taken from US20110105623A1 (Biogenic Innovations, LLC, priority 2009, published 2011).
Values joined by “and” are separate entries in the source; they are usually repeats but may differ in a detail not shown here. Identical values can stand only once.

How the values were obtained:
[1] = test system: normal flora found in the milks; test: Standard plate counts of non-probiotic microorganisms in Acidophilus milks; assay type: cell-based
Bacillus coagulans = test: Probiotic growth in media supplemented with MSM; assay type: cell-based
Description: Plates were then counted. […] Data are presented in Cfu/mL.

## Methylsulfonylmethane [MSM]
[1]; 5.0% MSM, throughout the study
  growth of normal flora (standard plate counts): did not allow any significant growth
[1]; A/B milk […] MSM, Day 0
  Growth of non-probiotic microorganisms in Acidophilus Milk: 370 cfu per mL
[1]; A/B milk […] MSM, Day 3
  Growth of non-probiotic microorganisms in Acidophilus Milk: 480 cfu per mL
[1]; A/B milk […] MSM, Day 7
  Growth of non-probiotic microorganisms in Acidophilus Milk: 570 cfu per mL
[1]; A/B milk […] MSM, Day 14
  Growth of non-probiotic microorganisms in Acidophilus Milk: 1460 cfu per mL
[1]; A/B milk […] MSM, Day 21
  Growth of non-probiotic microorganisms in Acidophilus Milk: 3500 cfu per mL
[1]; A/B milk […] MSM, Day 28
  Growth of non-probiotic microorganisms in Acidophilus Milk: 110000 cfu per mL
[1]; Acidophilus milk 0.50% MSM, Day 0, duplicates
  Growth of non-probiotic microorganisms in Acidophilus Milk: 20 cfu per mL and 30 cfu per mL
[1]; Acidophilus milk 0.50% MSM, Day 3, duplicates
  Growth of non-probiotic microorganisms in Acidophilus Milk: 10 cfu per mL
[1]; Acidophilus milk 0.50% MSM, Day 7, duplicates
  Growth of non-probiotic microorganisms in Acidophilus Milk: 10 cfu per mL
[1]; Acidophilus milk 0.50% MSM, Day 14, duplicates
  Growth of non-probiotic microorganisms in Acidophilus Milk: 20 cfu per mL
[1]; Acidophilus milk 0.50% MSM, Day 21, duplicates
  Growth of non-probiotic microorganisms in Acidophilus Milk: 20 cfu per mL and 40 cfu per mL
[1]; Acidophilus milk 5% MSM, Day 0, duplicates
  Growth of non-probiotic microorganisms in Acidophilus Milk: 10 cfu per mL and 20 cfu per mL
[1]; Acidophilus milk 5% MSM, Day 3, duplicates
  Growth of non-probiotic microorganisms in Acidophilus Milk: 10 cfu per mL
[1]; Acidophilus milk 5% MSM, Day 7, duplicates
  Growth of non-probiotic microorganisms in Acidophilus Milk: 10 cfu per mL and 20 cfu per mL
[1]; Acidophilus milk 5% MSM, Day 14, duplicates
  Growth of non-probiotic microorganisms in Acidophilus Milk: 20 cfu per mL and 10 cfu per mL
[1]; Acidophilus milk 5% MSM, Day 21, duplicates
  Growth of non-probiotic microorganisms in Acidophilus Milk: 20 cfu per mL and 10 cfu per mL
[1]; Acidophilus milk 5% MSM, Day 28, duplicates
  Growth of non-probiotic microorganisms in Acidophilus Milk: 10 cfu per mL
[1]; Acidophilus milk […] MSM, Day 0, duplicates
  Growth of non-probiotic microorganisms in Acidophilus Milk: 10 cfu per mL
[1]; Acidophilus milk […] MSM, Day 14, duplicates
  Growth of non-probiotic microorganisms in Acidophilus Milk: <10 cfu per mL
Bacillus coagulans; 0.125% MSM, 0 h
  Growth of Bacillus coagulans: 1.52 log10 CFU/mL
Bacillus coagulans; 0.125% MSM, 8 h
  Growth of Bacillus coagulans: 4.81 log10 CFU/mL
Bacillus coagulans; 0.125% MSM, 16 h
  Growth of Bacillus coagulans: 6.95 log10 CFU/mL
Bacillus coagulans; 0.125% MSM, 24 h
  Growth of Bacillus coagulans: 9.87 log10 CFU/mL
Bacillus coagulans; 0.125% MSM, 32 h
  Growth of Bacillus coagulans: 11.06 log10 CFU/mL
Bacillus coagulans; 0.125% MSM, 40 h
  Growth of Bacillus coagulans: 11.72 log10 CFU/mL
Bacillus coagulans; 0.125% MSM, 48 h
  Growth of Bacillus coagulans: 11.56 log10 CFU/mL
Bacillus coagulans; 0.125% MSM, 56 h
  Growth of Bacillus coagulans: 9.60 log10 CFU/mL
Bacillus coagulans; 0.125% MSM, 64 h
  Growth of Bacillus coagulans: 12.13 log10 CFU/mL
Bacillus coagulans; 0.125% MSM, 72 h
  Growth of Bacillus coagulans: 10.14 log10 CFU/mL
Bacillus coagulans; 0.2% MSM, 0 h
  Growth of Bacillus coagulans: 1.67 log10 CFU/mL
Bacillus coagulans; 0.2% MSM, 8 h
  Growth of Bacillus coagulans: 4.94 log10 CFU/mL
Bacillus coagulans; 0.2% MSM, 16 h
  Growth of Bacillus coagulans: 7.19 log10 CFU/mL
Bacillus coagulans; 0.2% MSM, 24 h
  Growth of Bacillus coagulans: 10.34 log10 CFU/mL
Bacillus coagulans; 0.2% MSM, 32 h
  Growth of Bacillus coagulans: 11.25 log10 CFU/mL
Bacillus coagulans; 0.2% MSM, 40 h
  Growth of Bacillus coagulans: 11.34 log10 CFU/mL
Bacillus coagulans; 0.2% MSM, 48 h
  Growth of Bacillus coagulans: 9.94 log10 CFU/mL
Bacillus coagulans; 0.2% MSM, 56 h
  Growth of Bacillus coagulans: 11.45 log10 CFU/mL
Bacillus coagulans; 0.2% MSM, 64 h
  Growth of Bacillus coagulans: 11.37 log10 CFU/mL
Bacillus coagulans; 0.2% MSM, 72 h
  Growth of Bacillus coagulans: 10.94 log10 CFU/mL
Bacillus coagulans; 0.50% MSM, 0 h
  Growth of Bacillus coagulans: 1.48 log10 CFU/mL
Bacillus coagulans; 0.50% MSM, 8 h
  Growth of Bacillus coagulans: 4.42 log10 CFU/mL
Bacillus coagulans; 0.50% MSM, 16 h
  Growth of Bacillus coagulans: 6.94 log10 CFU/mL
Bacillus coagulans; 0.50% MSM, 24 h
  Growth of Bacillus coagulans: 10.29 log10 CFU/mL
Bacillus coagulans; 0.50% MSM, 32 h
  Growth of Bacillus coagulans: 11.05 log10 CFU/mL
Bacillus coagulans; 0.50% MSM, 40 h
  Growth of Bacillus coagulans: 10.25 log10 CFU/mL
Bacillus coagulans; 0.50% MSM, 48 h
  Growth of Bacillus coagulans: 10.40 log10 CFU/mL
Bacillus coagulans; 0.50% MSM, 56 h
  Growth of Bacillus coagulans: 10.76 log10 CFU/mL
Bacillus coagulans; 0.50% MSM, 64 h
  Growth of Bacillus coagulans: 10.45 log10 CFU/mL
Bacillus coagulans; 0.50% MSM, 72 h
  Growth of Bacillus coagulans: 10.86 log10 CFU/mL
Bacillus coagulans; 1% MSM, 0 h
  Growth of Bacillus coagulans: 1.30 log10 CFU/mL
Bacillus coagulans; 1% MSM, 8 h
  Growth of Bacillus coagulans: 4.98 log10 CFU/mL
Bacillus coagulans; 1% MSM, 16 h
  Growth of Bacillus coagulans: 7.29 log10 CFU/mL
Bacillus coagulans; 1% MSM, 24 h
  Growth of Bacillus coagulans: 10.30 log10 CFU/mL
Bacillus coagulans; 1% MSM, 32 h
  Growth of Bacillus coagulans: 11.42 log10 CFU/mL
Bacillus coagulans; 1% MSM, 40 h
  Growth of Bacillus coagulans: 11.02 log10 CFU/mL
Bacillus coagulans; 1% MSM, 48 h
  Growth of Bacillus coagulans: 10.38 log10 CFU/mL
Bacillus coagulans; 1% MSM, 56 h
  Growth of Bacillus coagulans: 10.86 log10 CFU/mL
Bacillus coagulans; 1% MSM, 64 h
  Growth of Bacillus coagulans: 10.40 log10 CFU/mL
Bacillus coagulans; 1% MSM, 72 h
  Growth of Bacillus coagulans: 10.70 log10 CFU/mL
Bacillus coagulans; 5% MSM, 0 h
  Growth of Bacillus coagulans: 1.56 log10 CFU/mL
Bacillus coagulans; 5% MSM, 8 h
  Growth of Bacillus coagulans: 4.61 log10 CFU/mL
Bacillus coagulans; 5% MSM, 16 h
  Growth of Bacillus coagulans: 7.56 log10 CFU/mL
Bacillus coagulans; 5% MSM, 24 h
  Growth of Bacillus coagulans: 10.48 log10 CFU/mL
Bacillus coagulans; 5% MSM, 32 h
  Growth of Bacillus coagulans: 11.55 log10 CFU/mL
Bacillus coagulans; 5% MSM, 40 h
  Growth of Bacillus coagulans: 10.85 log10 CFU/mL
Bacillus coagulans; 5% MSM, 48 h
  Growth of Bacillus coagulans: 10.22 log10 CFU/mL
Bacillus coagulans; 5% MSM, 56 h
  Growth of Bacillus coagulans: 11.1 log10 CFU/mL
Bacillus coagulans; 5% MSM, 64 h
  Growth of Bacillus coagulans: 10.75 log10 CFU/mL
Bacillus coagulans; 5% MSM, 72 h
  Growth of Bacillus coagulans: 11.81 log10 CFU/mL
Bacillus coagulans; […] MSM, 0 h
  Growth of Bacillus coagulans: 1.43 log10 CFU/mL
Bacillus coagulans; […] MSM, 8 h
  Growth of Bacillus coagulans: 5.13 log10 CFU/mL
Bacillus coagulans; […] MSM, 16 h
  Growth of Bacillus coagulans: 7.05 log10 CFU/mL
Bacillus coagulans; […] MSM, 24 h
  Growth of Bacillus coagulans: 10.22 log10 CFU/mL
Bacillus coagulans; […] MSM, 32 h
  Growth of Bacillus coagulans: 11.70 log10 CFU/mL
Bacillus coagulans; […] MSM, 40 h
  Growth of Bacillus coagulans: 10.55 log10 CFU/mL
Bacillus coagulans; […] MSM, 48 h
  Growth of Bacillus coagulans: 10.88 log10 CFU/mL
Bacillus coagulans; […] MSM, 56 h
  Growth of Bacillus coagulans: 10.86 log10 CFU/mL
